Source: PubChem BioAssay AID1918937 (Molecular Pharmacology Branch, DTP, NCI, 2023)
“And” between values parts separate entries of the source, which are not always exact repeats. Identical values can stand only once. Values belong to the compound of their own block, whether it stands above or below them.

Test system: 521955-158-R2-J5-PDC complex spheroid viability
Test: Anticancer human tumor 521955-158-R2-J5-PDC patient-derived pancreatic carcinoma cell line growth inhibition
Settings: for viability, T/C: stronger effect = lower value
Outline: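 Complex spheroids of tumor cells with HUVEC and human MSCs, exposed to iadademstat combined with other agents. Each agent tested in half-log steps from near clinical Cmax (else 10 microM top), DMSO ≤0.25%.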

[1] = curve of first compound, second compound 0.1 µM
[2] = curve of first compound, second compound 0.316 µM
[3] = curve of first compound, second compound 1 µM
[4] = curve of first compound, second compound 3.16 µM
[5] = curve of first compound, second compound 10 µM
[6] = second compound 0.1 µM, first compound 0.000316 µM
[7] = second compound 0.1 µM, first compound 0.001 µM
[8] = second compound 0.1 µM, first compound 0.00316 µM
[9] = second compound 0.1 µM, first compound 0.01 µM
[10] = second compound 0.1 µM, first compound 0.0316 µM
[11] = second compound 0.1 µM, first compound 0.1 µM
[12] = second compound 0.316 µM, first compound 0.000316 µM
[13] = second compound 0.316 µM, first compound 0.001 µM
[14] = second compound 0.316 µM, first compound 0.00316 µM
[15] = second compound 0.316 µM, first compound 0.01 µM
[16] = second compound 0.316 µM, first compound 0.0316 µM
[17] = second compound 0.316 µM, first compound 0.1 µM
[18] = second compound 1 µM, first compound 0.000316 µM
[19] = second compound 1 µM, first compound 0.001 µM
[20] = second compound 1 µM, first compound 0.00316 µM
[21] = second compound 1 µM, first compound 0.01 µM
[22] = second compound 1 µM, first compound 0.0316 µM
[23] = second compound 1 µM, first compound 0.1 µM
[24] = second compound 3.16 µM, first compound 0.000316 µM
[25] = second compound 3.16 µM, first compound 0.001 µM
[26] = second compound 3.16 µM, first compound 0.00316 µM
[27] = second compound 3.16 µM, first compound 0.01 µM
[28] = second compound 3.16 µM, first compound 0.0316 µM
[29] = second compound 3.16 µM, first compound 0.1 µM
[30] = second compound 10 µM, first compound 0.000316 µM
[31] = second compound 10 µM, first compound 0.001 µM
[32] = second compound 10 µM, first compound 0.00316 µM
[33] = second compound 10 µM, first compound 0.01 µM
[34] = second compound 10 µM, first compound 0.0316 µM
[35] = second compound 10 µM, first compound 0.1 µM
[36] = second compound 0.1 µM, first compound 0.000949 µM
[37] = second compound 0.1 µM, first compound 0.003 µM
[38] = second compound 0.1 µM, first compound 0.00949 µM
[39] = second compound 0.1 µM, first compound 0.03 µM
[40] = second compound 0.1 µM, first compound 0.0949 µM
[41] = second compound 0.1 µM, first compound 0.3 µM
[42] = second compound 0.316 µM, first compound 0.000949 µM
[43] = second compound 0.316 µM, first compound 0.003 µM
[44] = second compound 0.316 µM, first compound 0.00949 µM
[45] = second compound 0.316 µM, first compound 0.03 µM
[46] = second compound 0.316 µM, first compound 0.0949 µM
[47] = second compound 0.316 µM, first compound 0.3 µM
[48] = second compound 1 µM, first compound 0.000949 µM
[49] = second compound 1 µM, first compound 0.003 µM
[50] = second compound 1 µM, first compound 0.00949 µM
[51] = second compound 1 µM, first compound 0.03 µM
[52] = second compound 1 µM, first compound 0.0949 µM
[53] = second compound 1 µM, first compound 0.3 µM
[54] = second compound 3.16 µM, first compound 0.000949 µM
[55] = second compound 3.16 µM, first compound 0.003 µM
[56] = second compound 3.16 µM, first compound 0.00949 µM
[57] = second compound 3.16 µM, first compound 0.03 µM
[58] = second compound 3.16 µM, first compound 0.0949 µM
[59] = second compound 3.16 µM, first compound 0.3 µM
[60] = second compound 10 µM, first compound 0.000949 µM
[61] = second compound 10 µM, first compound 0.003 µM
[62] = second compound 10 µM, first compound 0.00949 µM
[63] = second compound 10 µM, first compound 0.03 µM
[64] = second compound 10 µM, first compound 0.0949 µM
[65] = second compound 10 µM, first compound 0.3 µM
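Further: spheroids exposed to agents for seven days.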
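Wherever viability, T/C is given: percent of DMSO vehicle control luminescence viability.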

SMILES: CC(C)CC(NC(=O)CNC(=O)c1cc(Cl)ccc1Cl)B1OC(=O)CC(CC(=O)O)(C(=O)O)O1 (configuration not stated) + NC1CC1c1ccc(-c2cccc(O)c2)cc1
IC50 [1]: 5.71 nM
IC50 [2]: 5.63 nM
IC50 [3]: 5.49 nM
IC50 [4]: 5.37 nM
IC50 [5]: 4.75 nM
viability, T/C [6]: 83.1%
viability, T/C [7]: 91.7%
viability, T/C [8]: 86.8%
viability, T/C [9]: 15.1%
viability, T/C [10]: 0.96%
viability, T/C [11]: 0.46%
viability, T/C [12]: 73.4%
viability, T/C [13]: 90.5%
viability, T/C [14]: 89.2%
viability, T/C [15]: 15.8%
viability, T/C [16]: 0.53%
viability, T/C [17]: 0.18%
viability, T/C [18]: 81.3%
viability, T/C [19]: 83.6%
viability, T/C [20]: 87.3%
viability, T/C [21]: 13%
viability, T/C [22]: 0.98%
viability, T/C [23]: 0.23%
viability, T/C [24]: 76.3%
viability, T/C [25]: 86.2%
viability, T/C [26]: 83.8%
viability, T/C [27]: 12.3%
viability, T/C [28]: 0.68%
viability, T/C [29]: 0.23%
viability, T/C [30]: 87.6%
viability, T/C [31]: 93.7%
viability, T/C [32]: 72.7%
viability, T/C [33]: 8.29%
viability, T/C [34]: 0.39%
viability, T/C [35]: 0.24%

SMILES: CC[C@@]1(O)C(=O)OCc2c1cc1n(c2=O)Cc2cc3c(CN(C)C)c(O)ccc3nc2-1 + NC1CCC(NC2CC2c2ccccc2)CC1
IC50 [1]: 4.87 nM
IC50 [2]: 4.89 nM
IC50 [3]: 4.35 nM
IC50 [4]: 4.78 nM
IC50 [5]: 4.55 nM
viability, T/C [6]: 100%
viability, T/C [7]: 104%
viability, T/C [8]: 72.3%
viability, T/C [9]: 12.8%
viability, T/C [10]: 7.11%
viability, T/C [11]: 5.58%
viability, T/C [12]: 101%
viability, T/C [13]: 97.2%
viability, T/C [14]: 72.9%
viability, T/C [15]: 12.2%
viability, T/C [16]: 6.01%
viability, T/C [17]: 4.82%
viability, T/C [18]: 97.3%
viability, T/C [19]: 97.5%
viability, T/C [20]: 64.7%
viability, T/C [21]: 11.7%
viability, T/C [22]: 6.84%
viability, T/C [23]: 5.45%
viability, T/C [24]: 96.7%
viability, T/C [25]: 94.9%
viability, T/C [26]: 70.5%
viability, T/C [27]: 13.2%
viability, T/C [28]: 6.25%
viability, T/C [29]: 4.49%
viability, T/C [30]: 104%
viability, T/C [31]: 105%
viability, T/C [32]: 67%
viability, T/C [33]: 13.1%
viability, T/C [34]: 6.18%
viability, T/C [35]: 4.49%

SMILES: CCc1c2c(nc3ccc(O)cc13)-c1cc3c(c(=O)n1C2)COC(=O)[C@]3(O)CC + NC1CCC(NC2CC2c2ccccc2)CC1
IC50 [1]: < 0.949 nM
IC50 [2]: < 0.949 nM
IC50 [3]: < 0.949 nM
IC50 [4]: < 0.949 nM
IC50 [5]: < 0.949 nM
viability, T/C [36]: 4.35%
viability, T/C [37]: 3.31%
viability, T/C [38]: 1.16%
viability, T/C [39]: 0.45%
viability, T/C [40]: 0.43%
viability, T/C [41]: 0.63%
viability, T/C [42]: 5.2%
viability, T/C [43]: 4.07%
viability, T/C [44]: 0.9%
viability, T/C [45]: 0.54%
viability, T/C [46]: 0.4%
viability, T/C [47]: 0.58%
viability, T/C [48]: 5.26%
viability, T/C [49]: 3.09%
viability, T/C [50]: 0.97%
viability, T/C [51]: 0.59%
viability, T/C [52]: 0.52%
viability, T/C [53]: 0.46%
viability, T/C [54]: 4.43%
viability, T/C [55]: 3.74%
viability, T/C [56]: 0.95%
viability, T/C [57]: 0.3%
viability, T/C [58]: 0.53%
viability, T/C [59]: 1.4%
viability, T/C [60]: 4.7%
viability, T/C [61]: 4.29%
viability, T/C [62]: 1.07%
viability, T/C [63]: 0.67%
viability, T/C [64]: 1.68%
viability, T/C [65]: 0.55%

SMILES: Nc1ccn(C2OC(CO)C(O)C2(F)F)c(=O)n1 (configuration not stated) + NC1CCC(NC2CC2c2ccccc2)CC1
IC50 [1]: 50.9 nM
IC50 [2]: 55.5 nM
IC50 [3]: 56.2 nM
IC50 [4]: 50.1 nM
IC50 [5]: 43.5 nM
viability, T/C [36]: 105%
viability, T/C [37]: 104%
viability, T/C [38]: 96.8%
viability, T/C [39]: 68.4%
viability, T/C [40]: 28.4%
viability, T/C [41]: 16.3%
viability, T/C [42]: 105%
viability, T/C [43]: 98.8%
viability, T/C [44]: 96.2%
viability, T/C [45]: 79.7%
viability, T/C [46]: 24.2%
viability, T/C [47]: 11.2%
viability, T/C [48]: 95.3%
viability, T/C [49]: 97.2%
viability, T/C [50]: 90.1%
viability, T/C [51]: 74.8%
viability, T/C [52]: 29.5%
viability, T/C [53]: 12.6%
viability, T/C [54]: 104%
viability, T/C [55]: 96.6%
viability, T/C [56]: 82.6%
viability, T/C [57]: 69.5%
viability, T/C [58]: 28.8%
viability, T/C [59]: 12.8%
viability, T/C [60]: 101%
viability, T/C [61]: 98%
viability, T/C [62]: 83.7%
viability, T/C [63]: 63.2%
viability, T/C [64]: 26%
viability, T/C [65]: 10.4%

IC50 (curve of compound): 5.19 nM and 6.18 nM
SMILES: CC(C)CC(NC(=O)CNC(=O)c1cc(Cl)ccc1Cl)B1OC(=O)CC(CC(=O)O)(C(=O)O)O1 (configuration not stated)
viability, T/C (compound 0.000316 µM): 107% and 105%
viability, T/C (compound 0.001 µM): 106%
viability, T/C (compound 0.00316 µM): 82.2% and 97.3%
viability, T/C (compound 0.01 µM): 7.33% and 16.1%
viability, T/C (compound 0.0316 µM): 0.46% and 1.77%
viability, T/C (compound 0.1 µM): 0.41% and 0.54%

SMILES: Nc1ncn(C2CC(O)C(CO)S2)c(=O)n1 (configuration not stated) + NC1CC1c1ccc(-c2cccc(O)c2)cc1
IC50 [1]: > 300 nM
IC50 [2]: > 300 nM
IC50 [3]: > 300 nM
IC50 [4]: > 300 nM
IC50 [5]: > 300 nM
viability, T/C [36]: 90.7%
viability, T/C [37]: 96.2%
viability, T/C [38]: 90.1%
viability, T/C [39]: 98%
viability, T/C [40]: 85.2%
viability, T/C [41]: 64.7%
viability, T/C [42]: 98.7%
viability, T/C [43]: 94.3%
viability, T/C [44]: 93.1%
viability, T/C [45]: 89.5%
viability, T/C [46]: 76.6%
viability, T/C [47]: 69.2%
viability, T/C [48]: 98.4%
viability, T/C [49]: 90%
viability, T/C [50]: 94%
viability, T/C [51]: 88.8%
viability, T/C [52]: 90%
viability, T/C [53]: 75.3%
viability, T/C [54]: 98.5%
viability, T/C [55]: 101%
viability, T/C [56]: 92.7%
viability, T/C [57]: 91%
viability, T/C [58]: 87.6%
viability, T/C [59]: 69.9%
viability, T/C [60]: 99%
viability, T/C [61]: 105%
viability, T/C [62]: 100%
viability, T/C [63]: 97.3%
viability, T/C [64]: 90.3%
viability, T/C [65]: 71.8%
